Data published in the supplement of paper PMC10307832.

Experiments:
Assay in all cases: relative viability (nuclei count vs DMSO), 5 days (fraction); higher = more cells survive
IU1-47 + Palbociclib = compound: CC1=CC(=C(N1C2=CC=C(C=C2)Cl)C)C(=O)CN3CCCCC3 [IU1-47] + CC(=O)c1c(C)c2cnc(Nc3ccc(N4CCNCC4)cn3)nc2n(C2CCCC2)c1=O [Palbociclib] (partner 0.5 µM)
Outline: (§1)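 Lung cancer cell lines were pin-tool dosed in 1536-well plates on the day after seeding, with either a lone drug or a fixed anchor-drug dose plus five library-drug doses (not always all listed) in √10 steps. Nuclei were counted on 4× images after 5 days. Relative viability is the ratio of treated-well to vehicle-well nuclei counts, with each value a median of duplicate plates.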

IU1-47 + Navitoclax = compound: CC1=CC(=C(N1C2=CC=C(C=C2)Cl)C)C(=O)CN3CCCCC3 [IU1-47] + CC1(C)CCC(c2ccc(Cl)cc2)=C(CN2CCN(c3ccc(C(=O)NS(=O)(=O)c4ccc(N[C@H](CCN5CCOCC5)CSc5ccccc5)c(S(=O)(=O)C(F)(F)F)c4)cc3)CC2)C1 [Navitoclax] (partner 0.5 µM)
Outline: as §1

FG-4592 + Crizotinib = compound: Cc1nc(C(=O)NCC(=O)O)c(O)c2ccc(Oc3ccccc3)cc12 [FG-4592] + C[C@@H](Oc1cc(-c2cnn(C3CCNCC3)c2)cnc1N)c1c(Cl)ccc(F)c1Cl [Crizotinib] (partner 1 µM)
Outline: as §1

FG-4592 + Linsitinib = compound: Cc1nc(C(=O)NCC(=O)O)c(O)c2ccc(Oc3ccccc3)cc12 [FG-4592] + C[C@]1(O)C[C@@H](c2nc(-c3ccc4ccc(-c5ccccc5)nc4c3)c3c(N)nccn32)C1 [Linsitinib] (partner 1 µM)
Outline: as §1

Cell Line	relative viability (IU1-47 + Palbociclib; first compound 0.08 µM)	relative viability (IU1-47 + Palbociclib; first compound 0.253 µM)	relative viability (IU1-47 + Palbociclib; first compound 0.8 µM)	relative viability (IU1-47 + Palbociclib; first compound 2.53 µM)	relative viability (IU1-47 + Palbociclib; first compound 8 µM)	relative viability (IU1-47 + Navitoclax; first compound 0.08 µM)	relative viability (IU1-47 + Navitoclax; first compound 0.253 µM)	relative viability (IU1-47 + Navitoclax; first compound 0.8 µM)	relative viability (IU1-47 + Navitoclax; first compound 8 µM)	relative viability (FG-4592 + Crizotinib; first compound 0.08 µM)	relative viability (FG-4592 + Crizotinib; first compound 0.253 µM)	relative viability (FG-4592 + Crizotinib; first compound 0.8 µM)	relative viability (FG-4592 + Crizotinib; first compound 2.53 µM)	relative viability (FG-4592 + Crizotinib; first compound 8 µM)	relative viability (FG-4592 + Linsitinib; first compound 0.08 µM)	relative viability (FG-4592 + Linsitinib; first compound 0.253 µM)	relative viability (FG-4592 + Linsitinib; first compound 0.8 µM)	relative viability (FG-4592 + Linsitinib; first compound 2.53 µM)	relative viability (FG-4592 + Linsitinib; first compound 8 µM)	relative viability (IU1-47 + Navitoclax; first compound 2.53 µM)
NCI-H1651	0.525	0.539	0.495	0.523	0.523	1.25	1.13	1.16	1.12	0.89	0.799	0.829	0.863	0.862	0.986	0.998	0.915	1.09	0.815	
NCI-H1666	0.695	0.652	0.695	0.682	0.63	1.1	1.04	0.89	0.824	0.993	0.903	0.829	0.944	0.728	0.781	0.884	0.769	0.831	0.677	0.912
NCI-H1734	0.353	0.355	0.314	0.367	0.322	0.943	0.873	0.823	0.734	0.638	0.711	0.674	0.595	0.643	0.896	0.814	0.716	0.875	0.927	
NCI-H1755	0.44	0.518	0.461	0.46	0.436	1.15	1.05	1.06	1.01	0.77	0.875	0.864	0.941	0.916	0.993	0.961	0.963	1.04	1.06	1.07
NCI-H1792	0.727	0.643	0.707	0.44	0.544	0.65	0.725	0.76	0.251	0.96	0.764	0.812	1.01	0.975	0.522	0.411	0.487	0.577	0.567	0.678
NCI-H1915	0.561	0.513	0.539	0.565	0.528	0.822	0.805	0.828	0.833	0.87	0.883	0.922	0.874	0.905	1.06	1.07	1.19	1.11	1.07	
NCI-H1944	0.342	0.376	0.345	0.291	0.33	1.1	1.12	1.04	1.03	1.05	1.1	1.13	1.17	1.05	1.15	1.16	1.01	1.2	1.04	
